Results taken from patent US20230026259A1, “CA2 COMPOSITIONS AND METHODS FOR TUNABLE REGULATION” (Obsidian Therapeutics, Inc., priority 2019, published 2023).

How the values were obtained:
Type in all cases: cell-based
[1] = test system: NIH3T3 cells; assay: Destabilization mutant screening of human CA2 linked to GFP, ligand response by FACS (Valdecoxib, Celecoxib, Acetazolamide)
[2] = test system: NIH3T3 cells; assay: Immunoblotting of cell lysates for GFP after ligand treatment; conditions: 24 hours; for GFP protein expression by immunoblot, Acetazolamide: NIH3T3 cells, 0.3, 1, 3, 10 or 30 μM Acetazolamide; for GFP protein expression by immunoblot, Celecoxib or Valdecoxib: NIH3T3 cells, 1, 3, 10 or 30 μM Celecoxib or Valdecoxib
Description: The protein expression in the presence of ligand was measured by immunoblotting the cell lysates for GFP.
The protein expression in the presence of ligand was measured by immunoblotting cell lysates for GFP.

[3] = test system: NIH3T3 cells; assay: Destabilization mutant screening of human CA2 linked to GFP, ligand response by FACS (Valdecoxib, Celecoxib, Acetazolamide); conditions: for stabilization with varying doses of Valdecoxib or Celecoxib: NIH3T3 cells, FACS
Description: To identify destabilizing mutations of human CA2 that are stabilized upon ligand binding to CA2, two rounds of mutant screening were performed, using a lentivirus CA2 mutant library provided by Genscript (China). These methods were used to generate a library of mutant polypeptides using mutagenesis primers and error prone PCR. Lentiviral vectors expressing the template, wild-type human CA2 operably linked to GFP(OT-001986) was also provided by Genscript along with the CA2 mutant library. The library was packaged into lentivirus, transduced into NIH3T3 cells at a multiplicity of infection (MOI) of approximately 0.3 and select stable cell pools were derived by selecting with selection marker puromycin.
To identify cell pools containing destabilizing mutants of CA2 that are stabilizing when CA2 is bound to its corresponding ligand, cells were sorted using FACS. In the initial round, the bottom 15% of population that was GFP negative in the absence of ligand was selected. Cells were expanded and then treated with 10 μM Celecoxib for 24 hours and harvested for cell sorting. The top 11% GFP positive cells which were also responsive to ligand treatment compared to untreated were collected. Celecoxib was removed from the cultures and replaced with DMSO. […] Genomic DNA was isolated and amplified CA2 mutants were reintroduced to the lentiviral vectors where CA2 was operably linked to GFP. The constructs were transduced into NIH3T3 cells with lentivirus vectors for each clone. The cells were treated with 10 μM Valdecoxib or 10 μM Celecoxib for 24 hours and analyzed by FACS. […] In Table 25, the Construct ID (OT-XXXXXX) refers to the construct which includes the referenced CA2 mutant and the Library ID (LibCXXXXXX) refers to the CA2 mutant itself.
The response of NIH3T3 cells to varying doses of Valdecoxib or Celecoxib for 24 hours was measured and analyzed by FACS.
Clones treated with different ligands were compared to examine the behavior of each mutant with the ligands.

[4] = NIH3T3, Acetazolamide 0.03 μM vs DMSO
[5] = NIH3T3, DMSO (reference), Acetazolamide experiment
[6] = NIH3T3, 10 μM Celecoxib vs DMSO
[7] = NIH3T3, 10 μM Valdecoxib vs DMSO
[8] = NIH3T3, Acetazolamide 0.03 μM, 24 hours
[9] = NIH3T3, Acetazolamide 0.1 μM vs DMSO
[10] = NIH3T3, Acetazolamide 0.1 μM, 24 hours
[11] = NIH3T3, Acetazolamide 0.3 μM vs DMSO
[12] = NIH3T3, Acetazolamide 0.3 μM, 24 hours
[13] = NIH3T3, Acetazolamide 1 μM vs DMSO
[14] = NIH3T3, Acetazolamide 1 μM, 24 hours
[15] = NIH3T3, Acetazolamide 3 μM vs DMSO
[16] = NIH3T3, Acetazolamide 3 μM, 24 hours
[17] = NIH3T3, Acetazolamide 10 μM vs DMSO
[18] = NIH3T3, Acetazolamide 10 μM, 24 hours
[19] = NIH3T3, Acetazolamide 30 μM vs DMSO
[20] = NIH3T3, Acetazolamide 30 μM, 24 hours
[21] = NIH3T3, Celecoxib 0 μM, 24 hours
[22] = NIH3T3, Celecoxib 0.03 μM, 24 hours
[23] = NIH3T3, Celecoxib 0.1 μM, 24 hours
[24] = NIH3T3, Celecoxib 0.3 μM, 24 hours
[25] = NIH3T3, Celecoxib 1 μM, 24 hours
[26] = NIH3T3, Celecoxib 3 μM, 24 hours
[27] = NIH3T3, Celecoxib 10 μM, 24 hours
[28] = NIH3T3, Celecoxib 30 μM, 24 hours
[29] = NIH3T3, Celecoxib μM (concentration not given)
[30] = NIH3T3, DMSO, 24 hours (Acetazolamide experiment)
[31] = NIH3T3, Valdecoxib 0 μM, 24 hours
[32] = NIH3T3, Valdecoxib 0.03 μM, 24 hours
[33] = NIH3T3, Valdecoxib 0.1 μM, 24 hours
[34] = NIH3T3, Valdecoxib 0.3 μM, 24 hours
[35] = NIH3T3, Valdecoxib 1 μM, 24 hours
[36] = NIH3T3, Valdecoxib 3 μM, 24 hours
[37] = NIH3T3, Valdecoxib 10 μM, 24 hours
[38] = NIH3T3, Valdecoxib 30 μM, 24 hours
[39] = NIH3T3, Valdecoxib μM (concentration not given)

For “CA2 (aa 2-260 of WT, L156H) [LibC000208]”, the Fold change [1, 4] was 1.57, the Fold change [1, 5] was 1 and the “GFP expression with varying doses of Acetazolamide” value ([1]; NIH3T3 cells, 24 hours, FACS) was “dose response stabilization of GFP expression”. The “GFP protein expression by immunoblot, Acetazolamide” value [2] was “stabilization of GFP with increasing ligand doses”, the “GFP protein expression by immunoblot, Celecoxib or Valdecoxib” value [2] was “stabilization of GFP with increasing ligand doses” and the “Median PE” value ([3]; NIH3T3, 10 μM Celecoxib) was 8690. For the same substance, the “SR (stabilization ratio)” value [3, 6] was 9.38, the “Median PE” value ([3]; NIH3T3, 10 μM Valdecoxib) was 8006 and the “SR (stabilization ratio)” value [3, 7] was 8.65. For the same substance, the “Median FITC / Median PE” value [3, 8] was 1190, the Fold change [3, 9] was 2.82 and the “Median FITC / Median PE” value [3, 10] was 2137. For the same substance, the Fold change [3, 11] was 6.23, the “Median FITC / Median PE” value [3, 12] was 4715 and the Fold change [3, 13] was 13.17. The “Median FITC / Median PE” value [3, 14] was 9970, the Fold change [3, 15] was 18.36 and the “Median FITC / Median PE” value [3, 16] was 13900. The “MFI, comparative analysis” value ([3]; NIH3T3, Acetazolamide 10 μM) was 16900, the Fold change [3, 17] was 22.32 and the “Median FITC / Median PE” value [3, 18] was 16900. The “MFI, comparative analysis” value ([3]; NIH3T3, Acetazolamide 30 μM) was 17800, the Fold change [3, 19] was 23.51 and the “Median FITC / Median PE” value [3, 20] was 17800. For the same substance, the “Med (median fluorescence intensity)” value [3, 21] was 906, the “SR (stabilization ratio)” value [3, 21] was 1 and the “Med (median fluorescence intensity)” value [3, 22] was 1017. For the same substance, the “SR (stabilization ratio)” value [3, 22] was 1.12, the “Med (median fluorescence intensity)” value [3, 23] was 1194 and the “SR (stabilization ratio)” value [3, 23] was 1.32. The “Med (median fluorescence intensity)” value [3, 24] was 1457, the “SR (stabilization ratio)” value [3, 24] was 1.61 and the “Med (median fluorescence intensity)” value [3, 25] was 2221. For the same substance, the “SR (stabilization ratio)” value [3, 25] was 2.45, the “Med (median fluorescence intensity)” value [3, 26] was 5404 and the “SR (stabilization ratio)” value [3, 26] was 5.96. The “Med (median fluorescence intensity)” value [3, 27] was 9766, the “SR (stabilization ratio)” value [3, 27] was 10.78 and the “Med (median fluorescence intensity)” value [3, 28] was 13200. The “SR (stabilization ratio)” value [3, 28] was 14.57, the “MFI, comparative analysis, normalized to parental day 1” value (“MFI, comparative analysis, normalized” for short) [3, 29] was 8707.036 and the “MFI, comparative analysis” value ([3]; NIH3T3, DMSO) was 757. The “Median PE” value ([3]; NIH3T3, DMSO) was 926, the “SR (stabilization ratio)” value ([3]; NIH3T3, DMSO (reference)) was 1 and the “Median FITC / Median PE” value [3, 30] was 757. For the same substance, the “Med (median fluorescence intensity)” value [3, 31] was 906, the “SR (stabilization ratio)” value [3, 31] was 1 and the “Med (median fluorescence intensity)” value [3, 32] was 1049. The “SR (stabilization ratio)” value [3, 32] was 1.16, the “Med (median fluorescence intensity)” value [3, 33] was 1131 and the “SR (stabilization ratio)” value [3, 33] was 1.25. For the same substance, the “Med (median fluorescence intensity)” value [3, 34] was 1219, the “SR (stabilization ratio)” value [3, 34] was 1.35 and the “Med (median fluorescence intensity)” value [3, 35] was 1747. For the same substance, the “SR (stabilization ratio)” value [3, 35] was 1.93, the “Med (median fluorescence intensity)” value [3, 36] was 3603 and the “SR (stabilization ratio)” value [3, 36] was 3.98. For the same substance, the “Med (median fluorescence intensity)” value [3, 37] was 8284, the “SR (stabilization ratio)” value [3, 37] was 9.14 and the “Med (median fluorescence intensity)” value [3, 38] was 11300. For the same substance, the “SR (stabilization ratio)” value [3, 38] was 12.48, the “MFI, comparative analysis, normalized” value [3, 39] was 7385.735 and the “stabilization with varying doses of Valdecoxib or Celecoxib” value ([3]; 24 hours) was “dose dependent stabilization”.
For “CA2 (aa 2-260 of WT, L156H, S172C, F178Y, E186D) [LibC000193]”, the Fold change [1, 4] was 1.53, the Fold change [1, 5] was 1 and the “GFP protein expression by immunoblot, Acetazolamide” value [2] was “stabilization of GFP with increasing ligand doses”. The “GFP protein expression by immunoblot, Celecoxib or Valdecoxib” value [2] was “stabilization of GFP with increasing ligand doses”, the “Median PE” value ([3]; NIH3T3, 10 μM Celecoxib) was 7428 and the “SR (stabilization ratio)” value [3, 6] was 10.71. For the same substance, the “Median PE” value ([3]; NIH3T3, 10 μM Valdecoxib) was 6445, the “SR (stabilization ratio)” value [3, 7] was 9.3 and the “Median FITC / Median PE” value [3, 8] was 854. The Fold change [3, 9] was 2.92, the “Median FITC / Median PE” value [3, 10] was 1628 and the Fold change [3, 11] was 6.59. For the same substance, the “Median FITC / Median PE” value [3, 12] was 3669, the Fold change [3, 13] was 13.34 and the “Median FITC / Median PE” value [3, 14] was 7445. For the same substance, the Fold change [3, 15] was 18.31, the “Median FITC / Median PE” value [3, 16] was 10200 and the “MFI, comparative analysis” value ([3]; NIH3T3, Acetazolamide 10 μM) was 11900. The Fold change [3, 17] was 21.36, the “Median FITC / Median PE” value [3, 18] was 11900 and the “MFI, comparative analysis” value ([3]; NIH3T3, Acetazolamide 30 μM) was 12900. For the same substance, the Fold change [3, 19] was 23.16, the “Median FITC / Median PE” value [3, 20] was 12900 and the “Med (median fluorescence intensity)” value [3, 21] was 826. The “SR (stabilization ratio)” value [3, 21] was 1, the “Med (median fluorescence intensity)” value [3, 22] was 935 and the “SR (stabilization ratio)” value [3, 22] was 1.13. The “Med (median fluorescence intensity)” value [3, 23] was 1005, the “SR (stabilization ratio)” value [3, 23] was 1.22 and the “Med (median fluorescence intensity)” value [3, 24] was 1211. The “SR (stabilization ratio)” value [3, 24] was 1.47, the “Med (median fluorescence intensity)” value [3, 25] was 2058 and the “SR (stabilization ratio)” value [3, 25] was 2.49. For the same substance, the “Med (median fluorescence intensity)” value [3, 26] was 4283, the “SR (stabilization ratio)” value [3, 26] was 5.19 and the “Med (median fluorescence intensity)” value [3, 27] was 7751. The “SR (stabilization ratio)” value [3, 27] was 9.38, the “Med (median fluorescence intensity)” value [3, 28] was 11100 and the “SR (stabilization ratio)” value [3, 28] was 13.44. The “MFI, comparative analysis, normalized” value [3, 29] was 6910.53, the “MFI, comparative analysis” value ([3]; NIH3T3, DMSO) was 557 and the “Median PE” value ([3]; NIH3T3, DMSO) was 693. The “SR (stabilization ratio)” value ([3]; NIH3T3, DMSO (reference)) was 1, the “Median FITC / Median PE” value [3, 30] was 557 and the “Med (median fluorescence intensity)” value [3, 31] was 826. For the same substance, the “SR (stabilization ratio)” value [3, 31] was 1, the “Med (median fluorescence intensity)” value [3, 32] was 932 and the “SR (stabilization ratio)” value [3, 32] was 1.13. The “Med (median fluorescence intensity)” value [3, 33] was 1013, the “SR (stabilization ratio)” value [3, 33] was 1.23 and the “Med (median fluorescence intensity)” value [3, 34] was 1064. The “SR (stabilization ratio)” value [3, 34] was 1.29, the “Med (median fluorescence intensity)” value [3, 35] was 1583 and the “SR (stabilization ratio)” value [3, 35] was 1.92. For the same substance, the “Med (median fluorescence intensity)” value [3, 36] was 3667, the “SR (stabilization ratio)” value [3, 36] was 4.44 and the “Med (median fluorescence intensity)” value [3, 37] was 7449. The “SR (stabilization ratio)” value [3, 37] was 9.02, the “Med (median fluorescence intensity)” value [3, 38] was 9460 and the “SR (stabilization ratio)” value [3, 38] was 11.45. The “MFI, comparative analysis, normalized” value [3, 39] was 6641.277 and the “stabilization with varying doses of Valdecoxib or Celecoxib” value ([3]; 24 hours) was “dose dependent stabilization”.
